In experiment [1] the target is T1, rat lens aldose reductase (Rattus norvegicus, UniProt P07943).
T1 construct: evaluated against rat lens aldose reductase; from tissue; host or cells: rat lens
Briefly: inhibition of rat lens aldose reductase. The format is biochemical. The protocol: *IC50 values are based on inhibition of rat lens aldose reductase.
a) P. F. Kador, L. O. Merola and J. H. Kinoshita, Docum. Ophthal. Proc. Series, 18, 117-124 (1979);
b) P. F. Kador, J. H. Kinoshita, W. H. Tung and L. T. Chylack, Jr., Invest. Ophthalmol. Vis. Sci., 19, 980-982 (1980);
c) P. F. Kador, D. Carper and J. H. Kinoshita, Analytical Biochemistry, 114, 53-58 (1981).
Wherein the assay mixture used in the tests containing 0.1M potassium phosphate buffer, pH 6.2, 0.2 mM nictoinamide adenine dinucleotide phosphate (NADPH), 10 mM D,L-glyceraldehyde, and an appropriate volume of the enzyme preparation, thermostated at 25° C. in the cell compartment of a spectrophotometer. These conditions are identical to those published in references (a), (b) and (c), except that a larger NADPH concentration was employed. […] The control sample contained no added inhibitor. In order to measure aldose reductase inhibition activity, varying concentrations of the inhibitor examples set forth below were added to the standard incubation mixture. The control, containing the enzyme and NADPH, gave a very small, but measurable rate; thus, it served as the blank against which to measure the glyceraldehyde-dependent rate of NADPH oxidation. The tests were conducted with human placental aldose reductase enzyme. The results of the tests are the product of multiple assays. […] A test compound is considered active if it inhibits or reduces human aldose reductase activity at 1×10^-4 M concentration or less. The following list is provided as a representative sample of the biological activity of the spiro-tricyclic derivatives of the present invention.
According to the procedures of Kador, Merola and Kinoshite, Docum. Ophthal. Proc. Series, 18 (1979) 117 and Kador and Sharpless, Biophysical Chemistry, 8 (1978) 81 the inhibition exerted by examples of the present invention where evaluated against rat lens aldose reductase. Otherwise, the inhibitor assay is identical to that employed against human aldose reductase in Example XXVI. Representative rat lens aldose reductase inhibition is presented in terms of the concentration of test compound required to reduce rat lens aldose reductase enzyme activity by 50%. A test compound is considered active if it inhibits or reduces rat lens aldose reductase activity at 1×10^-4 M concentration or less.

Experiment [2] deals with rat lenses in 30 mM xylose culture. Briefly: rat lens culture assay, 30 mM xylose cataract model. To be noted: for lens opacification / lens wet weight increase: 7.5×10^-7 M in the culture media, 30 mM xylose, 18 h; for activity at 0.75 µM: Rattus norvegicus, after 18 h 30 mM xylose culture, compound 7.5 × 10^-7 M, % of control contralateral lens. The experiment is classed as cell-based, Sprague-Dawley rats. The protocol: Aldose reductase inhibitor potency may be evaluated in rat lens culture assays where 30 mM of glucose, galactose or xylose can be used in culture to induce a `sugar` cataract. In addition to monitoring lens clarity, certain biochemical radiolabeled markers (e.g., choline --^3 H and ^86 Rb) are employed to measure lens function. See Obazawa, Merola and Kinoshita, Invest. Ophthalmol., 13 (1974) 204 and Jernigan, Kador and Kinoshita, Exp. Eye Res., 32 (1981) 709.
The general procedure is as follows: a) Sprague-Dawley rats of 75-100 g body weight are sacrificed and the lenses removed immediately; b) the contralateral lens of the pair of lenses is employed as untreated control lens; c) the test lens is cultured in TC-199 culture media in the presence of 30 mM xylose, 30 mM xylose plus a selected concentration of test compound or a selected concentration of test compound; d) the contralateral control lens is treated identical to the test lens except no test compound or xylose is included; e) the matched lens pairs are cultured for 18 h in a CO2 incubator; f) the lenses are compared morphologically and weighed. All lenses, control and test groups, are allowed to preincubate for 1 h in respective control media or drug control media prior to transfer to xylose media or xylose-drug media. In those cases where radiolabelled markers are to be measured, the lenses are treated as aforementioned except the radiolabelled marker(s) are added to the culture at four hours before harvesting. Radiolabelled markers include choline --^3 H ([…] available from New England Nuclear), AIBA --^14 C (α-[1-^14 C]-(CH3)2 C(NH2)COOH available from New England Nuclear) and ^86 Rb. The effect of xylose on lens uptake of ^86 Rb, lens uptake of amino acid (AIBA --^14 C) and lens uptake of choline --^3 H and the effectiveness of representative compounds of the present invention to preserve normal lens morphology is reported here.
The effect of 30 mM xylose and 30 mM xylose plus selected concentrations of test compound on radioactivity ratio is expressed as L/M % of control. L/M % of control is defined as the test lens radioactivity divided by culture media radioactivity as a percentage of the control contralateral lens radioactivity to media radioactivity ratio under identical test conditions but always without xylose or test compound in the control. The effect of 30 mM xylose in the culture media gives a reproducible deleterious effect on the lens as measured by the various L/M %. Furthermore, after incubation of the lens in 30 mM xylose in the TC-199 culture media, the lens gains 20% weight (mostly water weight increase based on dry lens weight measurements) and becomes opaque in the cortex of the lens. Each experiment requires 20-40 pairs of lenses to determine the potency of a selected aldose reductase inhibitor.

A further experiment concerns galactosemic rats. The following applies: per oral, once daily, cited from earlier work.
Experiment [3] concerns chronic streptozotocin-induced rats. The following applies: 8 mg/kg per oral per day; cited from earlier work.
The mark [4] stands for this setting: read-out: L/M% = Lens uptake of 86Rb.
The mark [5] stands for this setting: read-out: L/M% = Lens uptake of AIBA-14C (amino acid).
The mark [6] stands for this setting: read-out: L/M% = Lens uptake of choline-3H.
[7] abbreviates: based on inhibition of rat lens aldose reductase, read-out: IC50.

Read-outs that look alike come from different tables or passages of the source.

Regarding `COc1cc(F)cc2c1-c1c(OC)cc(F)cc1C21NC(=O)NC1=O` [2,7-difluoro-4,5-dimethoxyspiro (9H-fluorene-9,4'-imidazolidine)-2',5'-dione], in experiment [1] (based on the inhibition of rat lens aldose reductase, read-out: IC50 value), the IC50 amounted to 7.8 nM.

Regarding `O=C1NC(=O)C2(N1)c1cc(F)ccc1-c1ccc(F)cc12` [B, Spiro-(2,7-difluoro-9H-fluoren-9,4'-imidazolidine)-2',5'-dione, reference compound], the lens opacification result in experiment [2] is “prevented”. The “lens wet weight increase” value in experiment [2] is reported as “prevented”. The values for the activity at 0.75 µM in experiment [2] (setting [4]), in experiment [2] (setting [5]) and in experiment [2] (setting [6]) were 82%, 87% and 105%, respectively. Besides, in the experiment on galactosemic rats (0.4 mg/kg), the “preventing cataract in galactosemic rats” value was “wholly effective”.

On to `O=C1NC(=O)C2(S1)c1ccccc1-c1ccc(F)cc12` (centres unmarked) [C, Spiro-(2-fluoro-9H-fluoren-9,5'-thiazolidine)-2',4'-dione], for which the lens opacification result in experiment [2] is “prevented”. In addition, in experiment [2], the “lens wet weight increase” value was “prevented”. Moreover, the activity at 0.75 µM turned out to be 70% in experiment [2] (setting [4]), 58% in experiment [2] (setting [5]) and 77% in experiment [2] (setting [6]).

Consider `Cc1cc(F)cc2c1-c1ccc(F)cc1C21CC(=O)NC1=O` (centres unmarked) [Compound 3, 2,7-DIFLUORO-4-METHYLSPIRO[9H-FLUORENE-9,3'-PYRROLIDINE]-2',5'-DIONE], for which the IC50 in experiment [1] (setting [7]) is 2.8 nM.

As for `O=C1NC(=O)C2(S1)c1cc(F)cc(F)c1-c1c(F)cc(F)cc12` [Compound 7, 2,4,5,7-TETRAFLUOROSPIRO[9H-FLUORENE-9,5'-THIAZOLIDINE]-2',4'-DIONE], the IC50 in experiment [1] (setting [7]) was determined as 17 nM.

For `O=C1NC(=O)C2(N1)c1cc(F)cc(F)c1-c1c(F)cc(F)cc12` [Compound 9, 2,4,5,7-TETRAFLUOROSPIRO[9H-FLUORENE-9,4'-IMIDAZOLIDINE]-2',5'-DIONE], the IC50 in experiment [1] (setting [7]) came out at 12 nM.

For the compound `Cc1cc(F)cc2c1-c1ccc(F)cc1C21NC(=O)NC1=O` (centres unmarked) [Compound 11, 2,7-DIFLUORO-4-METHYLSPIRO[9H-FLUORENE-9,4'-IMIDAZOLIDINE]-2',5'-DIONE], in experiment [1] (setting [7]), the IC50 was found to be 12.8 nM.

As to `COc1cc(F)cc2c1-c1ccc(F)cc1C21NC(=O)NC1=O` (centres unmarked) [Compound 16, 2,7-DIFLUORO-4-METHOXYSPIRO[9H-FLUORENE-9,4'-IMIDAZOLIDINE]-2',5'-DIONE], the IC50 in experiment [1] (setting [7]) came out at 9.4 nM.

With `COc1cc(F)cc2c1-c1ccc(F)cc1C21CC(=O)NC1=O` (centres unmarked) [Compound 17, 2,7-DIFLUORO-4-METHOXYSPIRO[9H-FLUORENE-9,3'-PYRROLIDINE]-2',5'-DIONE], the half-inhibitory concentration (IC50) in experiment [1] (setting [7]) was 4.8 nM.

With `Cc1ccc2c(n1)-c1c(F)cc(F)cc1C21NC(=O)NC1=O` (centres unmarked) [Compound 22, 7,9-DIFLUORO-2-METHYLSPIRO[5H-INDENO[1,2-b]PYRIDIN-5,4'-IMIDAZOLIDINE]-2',5'-DIONE], in experiment [1] (setting [7]), the half-maximal inhibitory concentration (IC50) turned out to be 48 nM.

On to `COc1cc(F)cc2c1-c1c(F)cc(F)cc1C21NC(=O)NC1=O` (centres unmarked) [Compound 28, 2,4,7-TRIFLUORO-5-METHOXYSPIRO[9H-FLUORENE-9,4'-IMIDAZOLIDINE]-2',5'-DIONE], for which the half-maximal inhibitory concentration (IC50) in experiment [1] (setting [7]) is 11300 nM.

On to `CSc1cc(F)cc2c1-c1ccc(F)cc1C21NC(=O)NC1=O` (centres unmarked) [Compound 34, 2,7-DIFLUORO-4-METHYLTHIOSPIRO[9H-FLUORENE-9,4'-IMIDAZOLIDINE]-2',5'-DIONE], for which the IC50 in experiment [1] (setting [7]) came out at 17.5 nM.

`Cc1cc(F)cc2c1-c1ncc(F)cc1C21NC(=O)NC1=O` (centres unmarked) [Compound 43, 3,7-DIFLUORO-9-METHYLSPIRO[5H-INDENO[1,2-b]PYRIDIN-5,4'-IMIDAZOLIDINE]-2',5'-DIONE]: the IC50 in experiment [1] (setting [7]) came to 16.1 nM.

On to `O=C1NC(=O)C2(N1)c1ccccc1-c1ccc(F)cc12` (centres unmarked) [Compound A, Spiro-(-2-fluoro-9H-fluoren-9,4'-imidazolidine)-2',5'-dione, reference compound], for which, in experiment [3], the “cataract in chronic streptozotocin-induced rats” value is listed as “prevent cataract” and the “motor nerve conduction velocity in chronic streptozotocin-induced rats” value is “significantly preserve”. In addition, in experiment [2], the lens opacification result is “prevented” and the “lens wet weight increase” value is “prevented”. For the same compound, the activity at 0.75 µM in experiment [2] (setting [4]) came to 55%. Besides, the activity at 0.75 µM in experiment [2] (setting [5]) amounted to 50%. Further, in experiment [2] (setting [6]), the activity at 0.75 µM came out at 73%. Moreover, in the experiment with galactosemic rats (1.26 mg/kg), the “preventing cataract in galactosemic rats” value was “wholly effective”.

For the compound `O=C1NC(=O)C2(S1)c1cc(F)ccc1-c1ccc(F)cc12` [D, Spiro-(2,7-difluoro-9H-fluoren-9,5'-thiazolidine)-2',4'-dione], the lens opacification entry in experiment [2] is reported as “prevented”. The “lens wet weight increase” value in experiment [2] is recorded as “prevented”. In addition, the values for the activity at 0.75 µM in experiment [2] (setting [4]), in experiment [2] (setting [5]) and in experiment [2] (setting [6]) were 83%, 85% and 109%, respectively.

For orientation: IC50 means the concentration at which inhibition is half-maximal.

The record behind these values is patent publication US5153211A, “Spiro-tricyclicaromatic succinimide derivatives as inhibitors of aldose reductase” (Alcon Laboratories, Inc., priority 1991, dated 1992).
